{
  "source": "ChEMBL document CHEMBL1201862",
  "about": "“PubChem BioAssay data set” (2004)",
  "key": {"Cytochrome P450 3A4": {"target": "Cytochrome P450 3A4 (Homo sapiens, UniProt P08684)", "sequence (P08684 whole entry)": "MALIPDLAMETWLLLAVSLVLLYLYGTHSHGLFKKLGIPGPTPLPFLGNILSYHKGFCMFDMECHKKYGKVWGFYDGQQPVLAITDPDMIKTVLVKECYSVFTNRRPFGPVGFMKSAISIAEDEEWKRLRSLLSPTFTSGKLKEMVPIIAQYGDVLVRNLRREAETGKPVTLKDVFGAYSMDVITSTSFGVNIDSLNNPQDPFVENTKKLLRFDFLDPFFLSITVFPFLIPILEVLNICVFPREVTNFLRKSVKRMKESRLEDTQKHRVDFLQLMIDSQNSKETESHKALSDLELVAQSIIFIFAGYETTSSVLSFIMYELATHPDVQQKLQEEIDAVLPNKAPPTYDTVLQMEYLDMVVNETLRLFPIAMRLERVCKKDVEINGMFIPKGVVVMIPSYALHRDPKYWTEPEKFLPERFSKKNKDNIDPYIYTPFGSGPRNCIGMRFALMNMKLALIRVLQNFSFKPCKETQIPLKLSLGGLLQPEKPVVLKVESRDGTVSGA", "conditions": "Potency"}, "[1]": {"target": "T1, Corticotropin-releasing factor receptor 2/Corticotropin-releasing factor-binding protein (Homo sapiens, UniProt P24387+Q13324)", "T1 sequence (Q13324 whole entry)": "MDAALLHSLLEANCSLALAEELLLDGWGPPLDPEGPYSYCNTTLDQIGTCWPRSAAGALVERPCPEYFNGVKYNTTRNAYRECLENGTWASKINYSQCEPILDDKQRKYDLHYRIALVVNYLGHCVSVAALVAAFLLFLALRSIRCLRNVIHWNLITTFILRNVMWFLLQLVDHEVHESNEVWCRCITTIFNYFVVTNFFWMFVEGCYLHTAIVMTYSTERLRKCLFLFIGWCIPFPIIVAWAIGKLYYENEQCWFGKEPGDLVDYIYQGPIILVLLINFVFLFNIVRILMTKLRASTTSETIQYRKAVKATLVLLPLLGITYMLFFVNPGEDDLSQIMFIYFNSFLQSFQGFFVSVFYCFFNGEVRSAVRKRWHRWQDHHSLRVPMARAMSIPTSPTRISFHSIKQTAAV", "T1 sequence (P24387 whole entry)": "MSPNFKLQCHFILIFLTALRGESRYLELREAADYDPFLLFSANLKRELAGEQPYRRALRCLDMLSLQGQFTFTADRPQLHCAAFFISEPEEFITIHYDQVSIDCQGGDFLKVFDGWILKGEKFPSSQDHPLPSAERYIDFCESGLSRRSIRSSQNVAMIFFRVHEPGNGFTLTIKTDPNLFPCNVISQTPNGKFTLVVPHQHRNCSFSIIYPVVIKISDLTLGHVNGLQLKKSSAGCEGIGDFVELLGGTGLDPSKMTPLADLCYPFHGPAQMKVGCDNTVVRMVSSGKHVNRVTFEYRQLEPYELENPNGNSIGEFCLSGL", "experiment": "activators of CRF receptor 2 with binding protein – uHTS hits, confirmation (AID 602473)", "format": "functional", "conditions": "read-out: EC50_Mean"}, "[2]": {"target": "T1, Corticotropin-releasing factor receptor 2/Corticotropin-releasing factor-binding protein", "experiment": "Dose Response confirmation of uHTS hits for small molecule antagonists of the CRF-binding protein and CRF-R2 receptor complex.", "format": "functional", "conditions": "read-out: IC50_Mean"}, "[3]": {"experiment": "CRF-BP/CRF-R2 complex antagonists, dose response, cell-based, uHTS hits, 384-well (AID 651639)", "format": "functional, Homo sapiens", "conditions": "read-out: IC50_Mean"}, "[4]": {"experiment": "A cytotoxicity screen of small molecule inhibitors of the PhoP region in Salmonella typhi identified in the primary screen. [Related pubchem assays: 1850, 1864, 1985 ]", "format": "functional"}, "Prothrombin": {"target": "Prothrombin (Homo sapiens, UniProt P00734)", "experiment": "Thrombin 1536 HTS Dose Response Confirmation. [Related pubchem assays: 1046 (Thrombin 1536 HTS; hits were confirmed in this assay)]", "format": "functional"}, "[5]": {"target": "FAD-linked sulfhydryl oxidase ALR (Homo sapiens, UniProt P55789)", "sequence (P55789 whole entry)": "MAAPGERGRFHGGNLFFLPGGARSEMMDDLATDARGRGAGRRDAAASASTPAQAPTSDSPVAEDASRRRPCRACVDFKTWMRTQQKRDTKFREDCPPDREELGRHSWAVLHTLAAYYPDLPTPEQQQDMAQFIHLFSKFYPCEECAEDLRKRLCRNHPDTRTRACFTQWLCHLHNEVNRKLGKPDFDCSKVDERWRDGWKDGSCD", "experiment": "inhibitors of human ALR sulfhydryl oxidase, dose response, biochemical, H2O2 detection, luminescence, cherry-pick (AID 493248)"}, "[6]": {"target": "Glyceraldehyde-3-phosphate dehydrogenase (Homo sapiens, UniProt P04406)", "sequence (P04406 whole entry)": "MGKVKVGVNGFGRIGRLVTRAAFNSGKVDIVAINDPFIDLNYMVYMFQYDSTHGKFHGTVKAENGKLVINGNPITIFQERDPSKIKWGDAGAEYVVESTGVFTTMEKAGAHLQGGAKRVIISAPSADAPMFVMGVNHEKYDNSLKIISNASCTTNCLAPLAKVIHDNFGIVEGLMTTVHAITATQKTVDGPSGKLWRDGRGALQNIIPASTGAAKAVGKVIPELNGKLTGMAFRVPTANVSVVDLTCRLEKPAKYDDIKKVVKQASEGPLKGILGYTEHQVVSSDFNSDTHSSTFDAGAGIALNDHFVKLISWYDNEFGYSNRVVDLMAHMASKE"}, "Large T antigen": {"target": "Large T antigen (Simian virus 40, UniProt P03070)", "sequence (P03070 whole entry)": "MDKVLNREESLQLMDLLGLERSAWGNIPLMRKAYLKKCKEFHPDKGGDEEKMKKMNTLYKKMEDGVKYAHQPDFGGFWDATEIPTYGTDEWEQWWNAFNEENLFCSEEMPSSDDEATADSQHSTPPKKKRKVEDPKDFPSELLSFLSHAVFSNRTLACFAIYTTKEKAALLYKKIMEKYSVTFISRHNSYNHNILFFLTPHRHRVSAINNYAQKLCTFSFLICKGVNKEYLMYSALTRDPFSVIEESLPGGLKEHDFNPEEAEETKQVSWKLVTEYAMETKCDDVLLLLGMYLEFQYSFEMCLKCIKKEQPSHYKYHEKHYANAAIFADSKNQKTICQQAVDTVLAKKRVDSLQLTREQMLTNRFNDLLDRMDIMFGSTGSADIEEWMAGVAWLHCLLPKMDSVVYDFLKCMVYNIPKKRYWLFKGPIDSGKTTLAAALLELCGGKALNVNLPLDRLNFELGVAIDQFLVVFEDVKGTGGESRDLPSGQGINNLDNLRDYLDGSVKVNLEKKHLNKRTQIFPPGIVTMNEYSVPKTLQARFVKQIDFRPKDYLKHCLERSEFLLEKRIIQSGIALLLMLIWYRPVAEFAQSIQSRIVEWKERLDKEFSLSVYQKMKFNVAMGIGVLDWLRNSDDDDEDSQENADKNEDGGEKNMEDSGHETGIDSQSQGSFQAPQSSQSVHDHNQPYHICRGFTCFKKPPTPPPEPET", "format": "functional, Betapolyomavirus macacae"}, "cells": {"experiment": "cells", "format": "functional"}, "Genome polyprotein": {"target": "Genome polyprotein (dengue virus type 2, UniProt P29990)", "sequence (P29990 2492-3391 limits assumed)": "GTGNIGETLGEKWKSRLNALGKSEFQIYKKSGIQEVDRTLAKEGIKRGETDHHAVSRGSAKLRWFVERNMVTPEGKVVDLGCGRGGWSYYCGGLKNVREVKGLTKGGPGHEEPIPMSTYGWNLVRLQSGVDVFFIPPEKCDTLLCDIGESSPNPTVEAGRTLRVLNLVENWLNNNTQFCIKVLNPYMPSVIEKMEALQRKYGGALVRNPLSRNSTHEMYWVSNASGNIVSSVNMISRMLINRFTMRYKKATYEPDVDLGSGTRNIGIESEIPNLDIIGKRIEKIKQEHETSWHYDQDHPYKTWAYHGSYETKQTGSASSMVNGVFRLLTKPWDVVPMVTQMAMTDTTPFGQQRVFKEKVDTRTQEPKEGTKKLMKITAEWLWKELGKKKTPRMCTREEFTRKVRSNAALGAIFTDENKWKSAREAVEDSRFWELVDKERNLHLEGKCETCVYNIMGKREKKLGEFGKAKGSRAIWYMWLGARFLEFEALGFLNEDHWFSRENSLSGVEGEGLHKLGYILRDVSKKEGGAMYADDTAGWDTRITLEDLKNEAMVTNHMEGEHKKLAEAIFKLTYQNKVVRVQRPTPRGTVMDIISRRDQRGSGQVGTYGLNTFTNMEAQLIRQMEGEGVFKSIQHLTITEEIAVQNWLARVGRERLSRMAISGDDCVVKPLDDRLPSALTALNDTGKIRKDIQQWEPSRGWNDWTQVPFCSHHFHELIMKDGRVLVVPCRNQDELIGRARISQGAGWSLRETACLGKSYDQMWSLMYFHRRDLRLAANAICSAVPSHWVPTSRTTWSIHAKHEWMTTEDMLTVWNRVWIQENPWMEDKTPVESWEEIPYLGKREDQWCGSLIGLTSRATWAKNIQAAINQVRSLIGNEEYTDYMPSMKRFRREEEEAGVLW", "experiment": "Dengue-2 NS5 methyltransferase inhibitors, primary screen, biochemical, confirmation dose response (AID 588689)", "format": "functional"}, "[7]": {"target": "DNA dC->dU-editing enzyme APOBEC-3G (Homo sapiens, UniProt Q9HC16)", "sequence (Q9HC16 whole entry)": "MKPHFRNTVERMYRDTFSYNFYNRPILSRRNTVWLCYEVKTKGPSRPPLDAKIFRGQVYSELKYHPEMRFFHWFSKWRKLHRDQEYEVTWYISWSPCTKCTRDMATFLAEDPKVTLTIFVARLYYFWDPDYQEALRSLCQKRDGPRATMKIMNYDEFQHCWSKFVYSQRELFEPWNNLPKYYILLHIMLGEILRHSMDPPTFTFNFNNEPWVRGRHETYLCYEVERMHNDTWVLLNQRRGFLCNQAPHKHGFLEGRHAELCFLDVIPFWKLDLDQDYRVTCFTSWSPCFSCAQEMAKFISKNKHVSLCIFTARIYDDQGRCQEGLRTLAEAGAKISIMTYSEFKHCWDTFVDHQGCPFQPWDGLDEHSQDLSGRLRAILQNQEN", "experiment": "Dose Response confirmation of small molecule APOBEC3G DNA Deaminase Inhibitors via a fluorescence-based single-stranded DNA deaminase assay. [Related pubchem assays (depositor defined):AID493012, AID493028]", "format": "functional"}, "Protein RecA": {"target": "T2, Protein RecA (Mycobacterium tuberculosis, UniProt P9WHJ3)", "T2 sequence (P9WHJ3 whole entry)": "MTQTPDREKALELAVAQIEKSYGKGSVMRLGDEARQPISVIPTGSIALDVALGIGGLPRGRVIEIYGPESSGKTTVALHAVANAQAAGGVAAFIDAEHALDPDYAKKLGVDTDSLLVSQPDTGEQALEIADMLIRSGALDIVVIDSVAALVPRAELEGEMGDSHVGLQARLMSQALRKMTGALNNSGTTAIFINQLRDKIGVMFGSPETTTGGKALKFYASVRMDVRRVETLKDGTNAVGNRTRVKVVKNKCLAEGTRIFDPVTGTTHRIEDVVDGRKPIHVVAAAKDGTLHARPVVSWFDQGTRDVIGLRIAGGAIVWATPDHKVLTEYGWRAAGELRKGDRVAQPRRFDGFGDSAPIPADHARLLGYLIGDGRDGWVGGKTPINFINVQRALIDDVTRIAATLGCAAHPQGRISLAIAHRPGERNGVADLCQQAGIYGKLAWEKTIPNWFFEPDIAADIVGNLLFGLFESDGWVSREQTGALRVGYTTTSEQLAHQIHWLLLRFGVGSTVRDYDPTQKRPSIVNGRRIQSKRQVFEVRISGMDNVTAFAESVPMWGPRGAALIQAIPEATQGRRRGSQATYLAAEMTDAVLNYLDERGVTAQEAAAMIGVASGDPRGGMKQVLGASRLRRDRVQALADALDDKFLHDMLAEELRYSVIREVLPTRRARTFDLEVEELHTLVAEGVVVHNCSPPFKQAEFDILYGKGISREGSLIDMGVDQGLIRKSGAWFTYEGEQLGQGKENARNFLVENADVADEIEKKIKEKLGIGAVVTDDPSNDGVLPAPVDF", "experiment": "Fluorescence Cell-Free Homogeneous Dose Retest to Identify Inhibitors of RecA-Intein Splicing Activity. [Related pubchem assays (depositor defined):AID2097, AID2223, AID489010, AID492950]", "format": "functional"}, "[8]": {"target": "T3, Replicative DNA helicase DnaB (Mycobacterium tuberculosis, UniProt P9WMR3)", "T3 sequence (P9WMR3 whole entry)": "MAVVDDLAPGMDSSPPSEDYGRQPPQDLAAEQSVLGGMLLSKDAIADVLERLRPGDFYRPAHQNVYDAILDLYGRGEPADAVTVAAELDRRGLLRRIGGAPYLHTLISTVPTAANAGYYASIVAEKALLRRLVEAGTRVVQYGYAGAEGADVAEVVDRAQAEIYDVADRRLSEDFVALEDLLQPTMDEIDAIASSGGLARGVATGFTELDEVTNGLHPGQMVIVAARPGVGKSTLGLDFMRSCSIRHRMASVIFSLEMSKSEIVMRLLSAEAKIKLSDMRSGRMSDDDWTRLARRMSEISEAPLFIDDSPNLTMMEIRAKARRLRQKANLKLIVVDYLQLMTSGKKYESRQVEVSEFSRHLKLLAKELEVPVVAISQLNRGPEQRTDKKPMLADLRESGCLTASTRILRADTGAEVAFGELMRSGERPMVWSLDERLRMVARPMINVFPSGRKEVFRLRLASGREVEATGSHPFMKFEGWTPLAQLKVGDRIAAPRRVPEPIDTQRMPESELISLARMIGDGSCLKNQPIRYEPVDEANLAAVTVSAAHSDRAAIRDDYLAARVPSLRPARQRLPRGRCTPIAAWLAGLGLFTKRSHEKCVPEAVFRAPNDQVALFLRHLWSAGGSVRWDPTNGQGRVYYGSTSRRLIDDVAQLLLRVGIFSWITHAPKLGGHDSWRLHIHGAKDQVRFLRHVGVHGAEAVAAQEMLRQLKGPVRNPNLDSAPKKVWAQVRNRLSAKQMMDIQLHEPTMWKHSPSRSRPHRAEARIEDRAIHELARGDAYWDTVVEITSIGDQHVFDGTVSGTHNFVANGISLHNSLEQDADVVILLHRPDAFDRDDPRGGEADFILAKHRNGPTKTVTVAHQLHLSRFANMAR", "experiment": "DnaB intein splicing inhibitors, dose response, biochemical, cell-free fluorescence (AID 449749)", "format": "functional"}, "[9]": {"experiment": "Shn3 3'UTR reporter inhibitors, dose response, cell-based, Clone20 osteoblasts, firefly luciferase, cherry-picked (AID 624132)", "format": "functional"}, "[10]": {"experiment": "cytotoxicity toward NIH3T3 fibroblasts, dose response, counter-screen, cell-based, ATP luminescence, mouse fibroblasts (AID 2010);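 also: cells exposed to compound for about 90 hours before reading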", "format": "functional"}, "[11]": {"experiment": "inhibitors of intracellular T. cruzi replication, confirmation, NIH3T3 host cells, beta-gal luminescence (AID 2044);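 also: luminescent beta-galactosidase reporter signal from transgenic T. cruzi replicating inside host cells; inhibitors lower the luminescence signal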", "format": "functional, cell-based"}, "[12]": {"experiment": "control 3'UTR Renilla luciferase suppression, dose response, counter-screen for Shn3 inhibitor project, cell-based, Clone20-Shn3RL, cherry-picked (AID 624133)", "format": "functional"}},
  "note": "Active and inactive are the calls of the source.",
  "data": [
    {"compound": "C=C(CC(=O)OC)C[C@]1(CC(=O)OC)CC2(CC=C(C)C)C(=O)C(C(=O)c3ccccc3)=C(OC(=O)c3ccc(Br)cc3)C(CC=C(C)C)(C1)C2=O", "note": "(stereo partly drawn)", "values": [
      {"measurement": "AC50", "setting": "Cytochrome P450 3A4", "value": "3.16 µM (inconclusive)"}
    ]},
    {"compound": "Cc1cc([N+](=O)[O-])ccc1NC1CCCC1", "values": [
      {"measurement": "EC50", "setting": "[1]", "value": "> 53 µM (inactive)"},
      {"measurement": "IC50", "setting": "[2]", "value": "7.24 µM (active)"},
      {"measurement": "IC50", "setting": "[3]", "value": "12.8 µM (active)"}
    ]},
    {"compound": "O=C(/C=C/c1ccccc1Cl)Nc1cccc(O)c1", "values": [
      {"measurement": "EC50", "setting": "[4]", "value": "> 50 µM (active)"}
    ]},
    {"compound": "CCc1cccc(CC)c1NC(=O)c1cccc(N)c1", "values": [
      {"measurement": "IC50", "setting": "Prothrombin", "value": "> 50 µM (not active)"}
    ]},
    {"compound": "CCOC(=O)Cc1csc(NC(=S)NC(=O)c2ccc([N+](=O)[O-])cc2)n1", "values": [
      {"measurement": "EC50", "setting": "[1]", "value": "18 µM (active)"},
      {"measurement": "IC50", "setting": "[2]", "value": "16.7 µM (active)"},
      {"measurement": "IC50", "setting": "[3]", "value": "> 20 µM (inactive)"}
    ]},
    {"compound": "Cc1ccc(S(=O)(=O)NNc2ccccc2)c(C)c1", "values": [
      {"measurement": "AC50", "setting": "[5]", "value": "0.319 µM (active)"},
      {"measurement": "EC50", "setting": "[4]", "value": "> 50 µM (active)"}
    ]},
    {"compound": "Cc1c(O)c(O)cc2c1oc1c3ccccc3oc(=O)c21", "values": [
      {"measurement": "AC50", "setting": "Cytochrome P450 3A4", "value": "20 µM (inconclusive)"}
    ]},
    {"compound": "COc1ccc(-c2coc3ccc(OC4OC(COC(C)=O)C(OC(C)=O)C(OC(C)=O)C4OC(C)=O)c(OC(C)=O)c3c2=O)cc1", "note": "(stereo not drawn)", "values": [
      {"measurement": "AC50", "setting": "Cytochrome P450 3A4", "value": "15.8 µM (inconclusive)"}
    ]},
    {"compound": "O=C(O)CSc1nc2ccc(Br)cc2o1", "values": [
      {"measurement": "IC50", "setting": "[6]", "value": "> 100 µM (not active)"}
    ]},
    {"compound": "CC(C)c1ccc(NC(=O)COc2ccccn2)cc1", "values": [
      {"measurement": "IC50", "setting": "Prothrombin", "value": "> 50 µM (not active)"}
    ]},
    {"compound": "COc1cc(/C=C2/C(=O)NN(c3cccc(C)c3)C2=O)ccc1OC(=O)c1ccco1", "values": [
      {"measurement": "IC50", "setting": "Large T antigen", "value": "32.1 µM (active)"},
      {"measurement": "IC50", "setting": "cells", "value": "19.9 µM (active)"},
      {"measurement": "IC50", "setting": "Genome polyprotein", "value": "64 µM (active)"}
    ]},
    {"compound": "S=C([S-])NCCNC(=S)[S-].[Zn+2]", "values": [
      {"measurement": "AC50", "setting": "Cytochrome P450 3A4", "value": "25.1 µM (inconclusive)"}
    ]},
    {"compound": "Cc1nc([N+](=O)[O-])c(SCc2ccc(O)c([N+](=O)[O-])c2)[nH]1", "values": [
      {"measurement": "IC50", "setting": "[7]", "value": "77.9 µM (active)"}
    ]},
    {"compound": "CSc1nc(-c2ccccc2)nn1C(=O)c1ccc(Cl)cc1", "values": [
      {"measurement": "EC50", "setting": "Protein RecA", "value": "44.3 µM (active)"},
      {"measurement": "AC50", "setting": "[8]", "value": "4.38 µM (active)"},
      {"measurement": "IC50", "setting": "Prothrombin", "value": "0.725 µM (active)"}
    ]},
    {"compound": "O=C(Nc1cc2c3c(c1)C1CCCC1CN3CC1CCCC21)c1ccc([N+](=O)[O-])cc1", "note": "(stereo not drawn)", "values": [
      {"measurement": "AC50", "setting": "[9]", "value": "2.2 µM (active)"},
      {"measurement": "EC50", "setting": "[10]", "value": "> 60 µM (inconclusive)"},
      {"measurement": "EC50", "setting": "[11]", "value": "1.07 µM (active)"},
      {"measurement": "IC50", "setting": "Prothrombin", "value": "> 50 µM (not active)"},
      {"measurement": "AC50", "setting": "[12]", "value": "4.88 µM (active)"}
    ]}
  ]
}
